Reference: ChEMBL document CHEMBL3885861, “Open TG-GATES”

Species on record: Rattus norvegicus
Assay: Open TG-GATES - Regimen: Single
Type: toxicity, organism-based, Sprague-Dawley
Set-up: regimen Single, gender Male, age 6 weeks
Conditions: in vivo, po, route gavage; for APTT / Bas / Eos / Fbg / Hb / Ht / Lym / MCH / MCHC / MCV / Mono / Neu / PT / Plat / RBC / Ret / WBC: tissue Blood; for KIDNEY_L / KIDNEY_R / KIDNEY_TOTAL: tissue Kidney; for LIVER: tissue Liver; for A/G / ALP / ALT / AST / BUN / CRE / Ca / Cl / DBIL / GLC / IP / K / LDH / Na / PL / RALB / TBIL / TC / TG / TP / gamma-GTP: tissue Plasma
[1] = 0 mg/kg, 3 h, dose level Control
[2] = 0 mg/kg, 6 h, dose level Control
[3] = 0 mg/kg, 9 h, dose level Control
[4] = 0 mg/kg, 24 h, dose level Control

## CN(C)CCC(c1ccc(Cl)cc1)c1ccccn1 (centres undefined) [CHLORPHENIRAMINE]
[1]
  TERMINAL_BW: 198.4 g
  APTT: 18.8 s
  Bas: 0.2%
  Eos: 0.8%
  Fbg: 288.8 mg/dL
  Hb: 12.6 g/dL
  Ht: 39.4%
  Lym: 77.4%
  MCH: 20.8 pg
  MCHC: 32.1%
  MCV: 64.9 fL
  Mono: 2.8%
  Neu: 18.2%
  PT: 14.7 s
  Plat: 109.9 x10_4/uL
  RBC: 606.2 x10_4/ul
  Ret: 9.4%
  WBC: 120.9 x10_2/uL
  KIDNEY_L: 0.9 g
  KIDNEY_R: 0.9 g
  KIDNEY_TOTAL: 1.7 g
  LIVER: 9.2 g
  A/G: 0.9
  ALP: 1344.2 IU/L
  ALT: 46 IU/L
  AST: 73.6 IU/L
  BUN: 9.2 mg/dL
  CRE: 0.2 mg/dL
  Ca: 10.5 mg/dL
  Cl: 107.2 meq/L
  DBIL: 0.008 mg/dL
  GLC: 179 mg/dL
  IP: 9.7 mg/dL
  K: 4.3 meq/L
  LDH: 215.8 IU/L
  Na: 142.8 meq/L
  PL: 137.2 mg/dL
  RALB: 2.5 g/dL
  TBIL: 0.054 mg/dL
  TC: 79.8 mg/dL
  TG: 46.6 mg/dL
  TP: 5.3 g/dL
  gamma-GTP: 1.4 IU/L
[2]
  TERMINAL_BW: 196.5 g
  APTT: 17.5 s
  Bas: 0%
  Eos: 0.6%
  Fbg: 303.6 mg/dL
  Hb: 12.8 g/dL
  Ht: 40.3%
  Lym: 76.8%
  MCH: 20.7 pg
  MCHC: 31.8%
  MCV: 65.1 fL
  Mono: 3.2%
  Neu: 18.8%
  PT: 14.8 s
  Plat: 117.5 x10_4/uL
  RBC: 618.2 x10_4/ul
  Ret: 9.5%
  WBC: 82.5 x10_2/uL
  KIDNEY_L: 0.9 g
  KIDNEY_R: 0.9 g
  KIDNEY_TOTAL: 1.7 g
  LIVER: 8.7 g
  A/G: 0.9
  ALP: 1456.6 IU/L
  ALT: 44.8 IU/L
  AST: 76.2 IU/L
  BUN: 10.2 mg/dL
  CRE: 0.2 mg/dL
  Ca: 10.8 mg/dL
  Cl: 106.6 meq/L
  DBIL: 0.008 mg/dL
  GLC: 190.6 mg/dL
  IP: 10.7 mg/dL
  K: 4.2 meq/L
  LDH: 140.2 IU/L
  Na: 143 meq/L
  PL: 135.2 mg/dL
  RALB: 2.5 g/dL
  TBIL: 0.05 mg/dL
  TC: 81 mg/dL
  TG: 49.2 mg/dL
  TP: 5.4 g/dL
  gamma-GTP: 1.2 IU/L
[3]
  TERMINAL_BW: 193.9 g
  APTT: 19.1 s
  Bas: 0%
  Eos: 0.8%
  Fbg: 294.4 mg/dL
  Hb: 12.7 g/dL
  Ht: 39.4%
  Lym: 75.6%
  MCH: 21.6 pg
  MCHC: 32.2%
  MCV: 67.1 fL
  Mono: 2.8%
  Neu: 19.8%
  PT: 15 s
  Plat: 107.8 x10_4/uL
  RBC: 587.6 x10_4/ul
  Ret: 9.5%
  WBC: 66.4 x10_2/uL
  KIDNEY_L: 0.9 g
  KIDNEY_R: 0.9 g
  KIDNEY_TOTAL: 1.7 g
  LIVER: 7.7 g
  A/G: 0.9
  ALP: 1415.8 IU/L
  ALT: 38.6 IU/L
  AST: 73.8 IU/L
  BUN: 8.2 mg/dL
  CRE: 0.1 mg/dL
  Ca: 10.2 mg/dL
  Cl: 106.6 meq/L
  DBIL: 0.008 mg/dL
  GLC: 161.6 mg/dL
  IP: 10.7 mg/dL
  K: 4 meq/L
  LDH: 116.2 IU/L
  Na: 143.8 meq/L
  PL: 131.6 mg/dL
  RALB: 2.5 g/dL
  TBIL: 0.054 mg/dL
  TC: 76.2 mg/dL
  TG: 39.4 mg/dL
  TP: 5.4 g/dL
  gamma-GTP: 1.2 IU/L
[4]
  TERMINAL_BW: 212.2 g
  APTT: 19.7 s
  Bas: 0%
  Eos: 1%
  Fbg: 292.6 mg/dL
  Hb: 13.3 g/dL
  Ht: 41.2%
  Lym: 80.6%
  MCH: 21.2 pg
  MCHC: 32.2%
  MCV: 66 fL
  Mono: 3.6%
  Neu: 14.2%
  PT: 14.7 s
  Plat: 116.5 x10_4/uL
  RBC: 624.8 x10_4/ul
  Ret: 8.4%
  WBC: 75.5 x10_2/uL
  KIDNEY_L: 0.9 g
  KIDNEY_R: 0.9 g
  KIDNEY_TOTAL: 1.8 g
  LIVER: 10 g
  A/G: 0.8
  ALP: 1528.4 IU/L
  ALT: 46 IU/L
  AST: 70.2 IU/L
  BUN: 14.6 mg/dL
  CRE: 0.2 mg/dL
  Ca: 11 mg/dL
  Cl: 106.4 meq/L
  DBIL: 0.012 mg/dL
  GLC: 190.6 mg/dL
  IP: 8.8 mg/dL
  K: 4.3 meq/L
  LDH: 94.4 IU/L
  Na: 143 meq/L
  PL: 156.8 mg/dL
  RALB: 2.7 g/dL
  TBIL: 0.04 mg/dL
  TC: 85 mg/dL
  TG: 86 mg/dL
  TP: 5.8 g/dL
  gamma-GTP: 1.4 IU/L
3 mg/kg, 3 h, dose level Low
  TERMINAL_BW: 195.7 g
  APTT: 18 s
  Bas: 0%
  Eos: 0.6%
  Fbg: 281.4 mg/dL
  Hb: 13.4 g/dL
  Ht: 41.7%
  Lym: 72.6%
  MCH: 20.9 pg
  MCHC: 32.2%
  MCV: 64.9 fL
  Mono: 3.4%
  Neu: 22.4%
  PT: 15 s
  Plat: 124.5 x10_4/uL
  RBC: 642.6 x10_4/ul
  Ret: 8.9%
  WBC: 84.7 x10_2/uL
  KIDNEY_L: 0.9 g
  KIDNEY_R: 0.8 g
  KIDNEY_TOTAL: 1.7 g
  LIVER: 8.5 g
  A/G: 0.9
  ALP: 1618.2 IU/L
  ALT: 47 IU/L
  AST: 76 IU/L
  BUN: 9.2 mg/dL
  CRE: 0.2 mg/dL
  Ca: 10.9 mg/dL
  Cl: 106 meq/L
  DBIL: 0.01 mg/dL
  GLC: 179.8 mg/dL
  IP: 10.4 mg/dL
  K: 4.1 meq/L
  LDH: 195 IU/L
  Na: 143.6 meq/L
  PL: 140.2 mg/dL
  RALB: 2.5 g/dL
  TBIL: 0.048 mg/dL
  TC: 77.8 mg/dL
  TG: 53.4 mg/dL
  TP: 5.5 g/dL
  gamma-GTP: 2 IU/L
3 mg/kg, 6 h, dose level Low
  TERMINAL_BW: 194.4 g
  APTT: 20 s
  Bas: 0.4%
  Eos: 1%
  Fbg: 296.2 mg/dL
  Hb: 13.2 g/dL
  Ht: 41.3%
  Lym: 75.8%
  MCH: 20.8 pg
  MCHC: 31.9%
  MCV: 65.1 fL
  Mono: 3.4%
  Neu: 19.2%
  PT: 14.9 s
  Plat: 119.3 x10_4/uL
  RBC: 633.8 x10_4/ul
  Ret: 9.5%
  WBC: 83.2 x10_2/uL
  KIDNEY_L: 0.9 g
  KIDNEY_R: 0.9 g
  KIDNEY_TOTAL: 1.8 g
  LIVER: 8.1 g
  A/G: 0.9
  ALP: 1343.4 IU/L
  ALT: 41.4 IU/L
  AST: 71.2 IU/L
  BUN: 7.8 mg/dL
  CRE: 0.2 mg/dL
  Ca: 10.5 mg/dL
  Cl: 108.4 meq/L
  DBIL: 0.004 mg/dL
  GLC: 176 mg/dL
  IP: 10.4 mg/dL
  K: 4.1 meq/L
  LDH: 200 IU/L
  Na: 144.4 meq/L
  PL: 150.2 mg/dL
  RALB: 2.5 g/dL
  TBIL: 0.052 mg/dL
  TC: 89.6 mg/dL
  TG: 42.6 mg/dL
  TP: 5.4 g/dL
  gamma-GTP: 1.4 IU/L
3 mg/kg, 9 h, dose level Low
  TERMINAL_BW: 194.2 g
  APTT: 17.4 s
  Bas: 0%
  Eos: 1%
  Fbg: 288.2 mg/dL
  Hb: 12.8 g/dL
  Ht: 39.6%
  Lym: 77.8%
  MCH: 20.9 pg
  MCHC: 32.4%
  MCV: 64.7 fL
  Mono: 2.8%
  Neu: 18%
  PT: 14.8 s
  Plat: 119.5 x10_4/uL
  RBC: 612.4 x10_4/ul
  Ret: 9.2%
  WBC: 71.4 x10_2/uL
  KIDNEY_L: 0.9 g
  KIDNEY_R: 0.9 g
  KIDNEY_TOTAL: 1.8 g
  LIVER: 7.7 g
  A/G: 0.9
  ALP: 1240.8 IU/L
  ALT: 40.6 IU/L
  AST: 71 IU/L
  BUN: 8.2 mg/dL
  CRE: 0.1 mg/dL
  Ca: 10.3 mg/dL
  Cl: 105.8 meq/L
  DBIL: 0.006 mg/dL
  GLC: 165.2 mg/dL
  IP: 10.2 mg/dL
  K: 3.9 meq/L
  LDH: 139 IU/L
  Na: 142.8 meq/L
  PL: 143 mg/dL
  RALB: 2.5 g/dL
  TBIL: 0.046 mg/dL
  TC: 85.4 mg/dL
  TG: 37.2 mg/dL
  TP: 5.3 g/dL
  gamma-GTP: 1 IU/L
3 mg/kg, 24 h, dose level Low
  TERMINAL_BW: 214.2 g
  APTT: 15.8 s
  Bas: 0%
  Eos: 1%
  Fbg: 291.4 mg/dL
  Hb: 12.9 g/dL
  Ht: 40.3%
  Lym: 78.2%
  MCH: 20.4 pg
  MCHC: 32.1%
  MCV: 63.5 fL
  Mono: 3%
  Neu: 16.4%
  PT: 14.6 s
  Plat: 123.3 x10_4/uL
  RBC: 634.4 x10_4/ul
  Ret: 7.9%
  WBC: 88.7 x10_2/uL
  KIDNEY_L: 0.9 g
  KIDNEY_R: 0.9 g
  KIDNEY_TOTAL: 1.8 g
  LIVER: 9.9 g
  A/G: 0.9
  ALP: 1572.2 IU/L
  ALT: 47.4 IU/L
  AST: 72.6 IU/L
  BUN: 14.4 mg/dL
  CRE: 0.2 mg/dL
  Ca: 11.2 mg/dL
  Cl: 105.6 meq/L
  DBIL: 0.016 mg/dL
  GLC: 188.6 mg/dL
  IP: 8.9 mg/dL
  K: 4.5 meq/L
  LDH: 131.6 IU/L
  Na: 142.8 meq/L
  PL: 150.4 mg/dL
  RALB: 2.6 g/dL
  TBIL: 0.05 mg/dL
  TC: 81.6 mg/dL
  TG: 80.8 mg/dL
  TP: 5.7 g/dL
  gamma-GTP: 1 IU/L
